Assay results: paper PMC5084075 (ACS Central Science, 2016)
Read-outs that look alike come from different tables or passages of the source.

Legend:
[1] = tested on: T1, Plasmodium falciparum Pfal (K1); assay: microbe, parasite or virus in culture; parameters: species or system erythrocytes; P. falciparum asexual blood-stage whole-cell growth inhibition, IC50; conditions: K1, Erythrocyte
T1 construct: K1
Description: (§1) To confirm the promise of the two starting points OSM-S-5 and -6, they were evaluated against 3D7 (drug-sensitive) and K1 (chloroquine resistant) strains of Plasmodium falciparum in a whole cell assay and against HEK-293 cells as a cytotoxicity marker (Table SB1, Biological Protocols; tables with the prefix “SB” may be found in the Supporting Information). Biological data may be browsed in a static data set taken as a snapshot for this paper (Data Sets S1 (Excel), S2 (SDF)), online in a database constructed through periodic batch uploads,[68] or in a “living database” to which may be added future data;[69] the latter may be visualized in a web browser[70] using an open source system that was recently deployed in the Wikipedia Chemical Structure Explorer,[71] or the data may be downloaded and visualized offline with proprietary (Figure S4)[72] or open source (Figure S5)[73] tools). The evaluation was performed in three different institutions using different assays and widely employed controls; controls are important to assess reproducibility and interassay variability[74] but also to minimize possible bias in evaluating compounds where there are pre-existing data from other researchers already in the public domain (Figure S6).[75]

[2] = tested on: T2, Plasmodium falciparum 3D7; assay: microbe, parasite or virus in culture; parameters: species or system P. falciparum blood stage culture; whole-cell asexual blood stage P. falciparum growth inhibition; conditions: Avery assay, read-out: 3D7 / IC50nM
T2 construct: 3D7
Description: as §1

[3] = tested on: T3, Plasmodium falciparum K1 (chloroquine resistant); assay: microbe, parasite or virus in culture; parameters: species or system P. falciparum blood stage culture; whole-cell asexual blood stage P. falciparum growth inhibition
T3 construct: K1
Description: as §1

[4] = tested on: T4, Plasmodium falciparum Pfal (3D7); assay: microbe, parasite or virus in culture; parameters: species or system erythrocytes; P. falciparum asexual blood-stage whole-cell growth inhibition, IC50; conditions: 3D7, Erythrocyte, lab named in column head
T4 construct: 3D7
Description: as §1

[5] = tested on: Plasmodium falciparum Pfal (strain not named in column head); assay: microbe, parasite or virus in culture; parameters: species or system P. falciparum blood stage culture; whole-cell asexual blood stage P. falciparum growth inhibition
Description: as §1

[6] = molecular target: T5, PfDHODH (Plasmodium falciparum, UniProt Q08210); assay: biochemical; parameters: PfDHODH enzyme inhibition IC50; conditions: read-out: DHODH
T5 sequence (Q08210 1-569): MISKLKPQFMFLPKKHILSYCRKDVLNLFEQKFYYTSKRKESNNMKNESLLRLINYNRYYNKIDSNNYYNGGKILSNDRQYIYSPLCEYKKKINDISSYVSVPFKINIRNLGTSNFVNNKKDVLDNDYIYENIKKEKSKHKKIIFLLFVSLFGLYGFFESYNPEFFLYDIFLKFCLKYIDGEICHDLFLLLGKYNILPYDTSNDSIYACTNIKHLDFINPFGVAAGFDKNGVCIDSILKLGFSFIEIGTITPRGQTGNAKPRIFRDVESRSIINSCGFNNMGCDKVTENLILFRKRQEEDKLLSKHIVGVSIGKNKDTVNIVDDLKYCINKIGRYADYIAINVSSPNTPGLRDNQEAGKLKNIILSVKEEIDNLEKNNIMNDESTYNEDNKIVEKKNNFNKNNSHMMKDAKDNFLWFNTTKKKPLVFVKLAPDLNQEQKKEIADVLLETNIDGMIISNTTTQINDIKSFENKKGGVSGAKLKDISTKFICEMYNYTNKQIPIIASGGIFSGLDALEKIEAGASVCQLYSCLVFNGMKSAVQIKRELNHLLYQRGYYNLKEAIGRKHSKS
Description: The potency of the near neighbor set led to an in silico target prediction study being performed on OSM-S-39 (Text S11). The method employed a naive Bayes statistical model identifying molecular structural features of small molecules with protein targets, using the ChEMBL database. Similar statistical approaches based on known activities of compounds have been successfully applied to identify targets of antitubercular compounds.[112]−[114] A total of 1,287 proteins were included for which at least 50 active compounds were known with activities <10 μM, with the other compounds in the database comprising the inactives. After the OSM compounds were scored against each target, the scores obtained were standardized by comparison with scores obtained through comparison with a random set of >10K compounds. The prediction list was culled for proteins relevant to malaria (3D7 proteome), and the analysis gave as the most likely candidate targets, in order of significance, carboxy-terminal domain RNA polymerase II polypeptide A small phosphatase 1 (Q8I3U9), dihydroorotate dehydrogenase (DHODH, Q08210), SUMO-activating enzyme subunit 2 (Q8I553) and 1 (Q8IHS2), and cyclin-dependent kinase 1 (P61075). […] A line of inquiry remaining open is the equivalent assays against the other targets identified in the in silico prediction.

[7] = in vitro; parameters: microsomal stability with NADPH, LC-MS, half-life and CLint; conditions: human, liver microsomes, HLM; for microsomal CLint: read-out: CLint HLM (Monash); for half-life: read-out: t1/2 HLM (Monash)
Description: (§2) The two original GSK hits (OSM-S-5 and -6) and six NN compounds were evaluated for their kinetic solubility in phosphate buffer and their metabolic stability in human liver microsomes (Table SB5, Data Sets S20 and S21).

[8] = in vitro; parameters: metabolic stability in human liver microsomes, LC-MS, NADPH, 0.4 mg/mL protein; conditions: liver microsomes, human liver microsomes; for microsomal CLint: read-out: CLint HLM (Monash); for half-life: read-out: t1/2 HLM (Monash)
Description: as §2

[9] = tested on: HEK293; assay: cells; parameters: cytotoxicity counter-screen on HEK293 cells; conditions: Homo sapiens, cytotoxicity
Description: as §1

[10] = Avery assay, read-out: K1 / IC50nM
[11] = lab named in column head, read-out: Pfal (K1) IC50 (Guy)
[12] = Guy assay, read-out: Pfal (K1) IC50 (Guy)

Work on C[C@@H]1CC[C@H]2[C@@H](C)C(=O)O[C@@H]3O[C@@]4(C)CC[C@@H]1[C@]32OO4 [Artemisinin] yielded an IC50 ([1]; read-out: K1 / IC50nM) of 0.61 nM and an IC50 [2] of 6 nM.

Work on CCN(CC)CCCC(C)Nc1ccnc2cc(Cl)ccc12 (centres unmarked) [Chloroquine] yielded an IC50 [3, 10] of 266 nM and an IC50 [2] of 18.7 nM.

Cc1cc(/C=C2\SC(=Nc3ccccc3)NC2=O)c(C)n1-c1ccc(S(N)(=O)=O)cc1 [OSM-A-1] gave an IC50 ([4]; read-out: Pfal IC50 (Guy)) of 3.05 µM, an IC50 [1, 11] of 4380 nM and an IC50 [3, 12] of 4380 nM. The IC50 ([5]; Guy assay) was 3.05 µM.

Cc1cc(/C=C2\S/C(=N\c3ccccc3)NC2=O)c(C)n1-c1ccc(C#N)cc1 [OSM-A-2] showed an IC50 [3, 12] of 1830 nM and an IC50 ([5]; Guy assay) of 0.574 µM.

Compound COc1cccc(-n2c(C)cc(/C=C3\S/C(=N\c4ccccc4)NC3=O)c2C)c1 [OSM-A-3] has an IC50 [3, 12] of 140 nM and an IC50 ([5]; Guy assay) of 0.098 µM.

With Cc1cc(/C=C2\S/C(=N\c3ccccc3)NC2=O)c(C)n1-c1ccc(I)cc1 [OSM-A-4] the IC50 [3, 12] was 3160 nM and the IC50 ([5]; Guy assay) was 1.75 µM.

Compound Cc1cc(S(=O)(=O)N(C)CC(N)=O)c(C)n1-c1ccc(F)cc1 [OSM-E-1] has an IC50 ([5]; Dundee assay) of over 50 µM.

With Cc1cc(S(=O)(=O)NCC(N)=O)c(C)n1-c1ccc(F)cc1 [OSM-E-2] the IC50 ([5]; Dundee assay) was over 50 µM.

For Cc1c(S(=O)(=O)N(C)CC(N)=O)c(S(=O)(=O)N(C)CC(N)=O)c(C)n1-c1ccc(F)cc1 [OSM-E-3], the IC50 ([5]; Dundee assay) was over 50 µM.

O=C(CBr)OCc1cn(-c2ccc(F)cc2)nn1 [OSM-E-4] gave an IC50 ([5]; Dundee assay) of over 50 µM.

Compound CCOC(=O)COCc1cn(-c2ccc(F)cc2)nn1 [OSM-E-5] has an IC50 ([5]; Dundee assay) of over 50 µM.

COC(=O)COCc1cn(-c2ccc(F)cc2)nn1 [OSM-E-6] gave an IC50 ([5]; Dundee assay) of over 50 µM.

O=C(COCc1cn(-c2ccc(F)cc2)nn1)OCc1cn(-c2ccc(F)cc2)nn1 [OSM-E-7] showed an IC50 ([5]; Dundee assay) of over 50 µM.

NC(=O)COCc1cn(-c2ccc(F)cc2)nn1 [OSM-E-8] gave an IC50 ([5]; Dundee assay) of over 50 µM.

With Cc1cc(/C=C2\S/C(=N\c3ccccc3)N(c3ccccc3)C2=O)c(C)n1-c1cccc(F)c1 [OSM-L-1] the IC50 ([3]; Batra assay, read-out: Pfal (K1) IC50 (Batra)) was over 5000 nM and the IC50 ([5]; Batra assay) was 3.2 µM.

Cc1cc(/C=C2\SC(=Nc3ccccc3)N(c3ccccc3)C2=O)c(C)n1-c1cccc(F)c1 [OSM-L-1] showed an IC50 ([4]; read-out: Pfal IC50 (Batra)) of 3.2 µM and an IC50 ([1]; lab named in column head, read-out: Pfal (K1) IC50 (Batra)) of over 5000 nM.

For Cc1cc(C=O)c(C)n1-c1ccc(F)cc1 [OSM-S-2], the IC50 [6] was over 50 µM.

Work on CCOC(=O)c1cc(C)n(-c2ccc(F)cc2)c1C [OSM-S-3] yielded an IC50 [6] of over 50 µM.

For Cc1cc(C(=O)O)c(C)n1-c1ccc(F)cc1 [OSM-S-4], the IC50 [6] was over 50 µM.

With Cc1cc(C(=O)OCC(=O)Nc2c(C)n(C)n(-c3ccccc3)c2=O)c(C)n1-c1ccc(F)cc1 [OSM-S-6] the IC50 [6] was over 50 µM.

In the case of Cc1cc(C(=O)N(C(=O)NC2CCCCC2)C2CCCCC2)c(C)n1-c1ccc(F)cc1 [OSM-S-7], the IC50 [6] is reported as over 50 µM.

In the case of Cc1cc(C(=O)Nc2c(C)n(C)n(-c3ccccc3)c2=O)c(C)n1-c1ccc(F)cc1 [OSM-S-8], the IC50 [6] is reported as over 50 µM.

Work on Cc1cc(/C=C2\S/C(=N\c3ccccc3)NC2=O)c(C)n1-c1ccc(F)cc1 [OSM-S-10] yielded a microsomal CLint [7] of 17 µL/min/mg, a half-life [7] of 1.72 h and a microsomal CLint [8] of 17 µL/min/mg. The half-life [8] was 1.72 h.

Work on Cc1c(NC(=O)CNC(=O)c2ccccc2)c(=O)n(-c2ccccc2)n1C [OSM-S-16] yielded an IC50 [6] of over 50 µM.

Cc1cc(C(=O)NCC(N)=O)c(C)n1-c1ccc(F)cc1 [OSM-S-19] gave an IC50 [6] of over 50 µM.

Compound Cc1cc(C(=O)NCC(=O)Nc2c(C)n(C)n(-c3ccccc3)c2=O)c(C)n1-c1ccc(F)cc1 [OSM-S-21] has an IC50 [6] of over 50 µM.

Work on Cc1ccc(-n2c(C)cc(/C=C3\SC(=Nc4ccccc4)NC3=O)c2C)cc1 [OSM-S-37] yielded an IC50 ([4]; read-out: Pfal IC50 (Guy)) of 0.161 µM, an IC50 [1, 11] of 176 nM and a microsomal CLint [7] of 7 µL/min/mg. It also gave a half-life [7] of 4.08 h, an IC50 [3, 12] of 176 nM and an IC50 ([5]; Guy assay) of 0.161 µM. For the same compound, the IC50 [6] was over 50 µM, the microsomal CLint [8] was 7 µL/min/mg and the half-life [8] was 4.08 h.

Work on Cc1cc(/C=C2\S/C(=N\c3ccccc3)N(CC#N)C2=O)c(C)n1-c1ccc(C(F)(F)F)cc1 [OSM-S-42] yielded an IC50 [6] of over 50 µM.

In the case of Cc1cc(/C=C2\SC(N(CC#N)c3ccccc3)=NC2=O)c(C)n1-c1ccc(C(F)(F)F)cc1 [OSM-S-43], the IC50 [6] is reported as over 50 µM.

With CC(=O)N(C1=NC(=O)/C(=C/c2cc(C)n(-c3ccc(C(F)(F)F)cc3)c2C)S1)c1ccccc1 [OSM-S-45] the IC50 [6] was over 50 µM.

CCOC(=O)c1ccc(-n2c(C)cc(/C=C3\S/C(=N/c4ccccc4)NC3=O)c2C)cc1 [OSM-S-48] gave an IC50 [6] of over 50 µM.

CC(=O)N(C1=NC(=O)/C(=C/c2cc(C)n(-c3ccccc3)c2C)S1)c1ccccc1 [OSM-S-49] gave an IC50 [6] of over 50 µM.

With CC(=O)N(C1=NC(=O)/C(=C/c2cc(C)n(-c3ccc(C)cc3)c2C)S1)c1ccccc1 [OSM-S-50] the IC50 [6] was over 50 µM.

Cc1cc(/C=C2\S/C(=N\c3ccccc3)NC2=O)c(C)n1-c1ccccn1 [OSM-S-51] showed an IC50 [6] of over 50 µM.

Compound Cc1cc(/C=C2\S/C(=N\c3ccccc3)N(c3ccccc3)C2=O)c(C)n1-c1ccc(C(F)(F)F)cc1 [OSM-S-52] has an IC50 [6] of over 50 µM.

Compound Cc1cc(/C=C2\S/C(=N\c3ccccc3)N(C3CCCC3)C2=O)c(C)n1-c1ccc(C(F)(F)F)cc1 [OSM-S-54] has an IC50 [6] of over 50 µM.

Work on O=C1N=C(Nc2ccccc2)S/C1=C\c1ccccc1 [OSM-S-55] yielded an IC50 [6] of over 50 µM.

Cc1cc(/C=C2\S/C(=N\c3ccccc3)NC2=O)c(C)[nH]1 [OSM-S-108] gave an inhibition at 40 µM [9] of 44%.

With Cc1cc(/C=C2\S/C(=N\c3cccc(O)c3)NC2=O)c(C)n1-c1ccc([N+](=O)[O-])cc1 [OSM-S-110] the inhibition at 40 µM [9] was 26%.

COc1ccc(-n2c(C)cc(/C=C3\S/C(=N\c4cccc(O)c4)NC3=O)c2C)cc1 [OSM-S-112] gave an inhibition at 40 µM [9] of 38%.

With Cc1cc(/C=C2\S/C(=N\c3cccc(O)c3)NC2=O)c(C)n1-c1ccccc1 [OSM-S-114] the inhibition at 40 µM [9] was 42%.

Cc1cc(/C=C2\S/C(=N\c3ccc(O)cc3)NC2=O)c(C)n1-c1ccccc1 [OSM-S-115] gave an inhibition at 40 µM [9] of 35%.

For COc1cc(C)c2c(Oc3cccc(C(F)(F)F)c3)c(OC)cc(NC(C)CCCN)c2n1 (centres unmarked) [Tafenoquine], the IC50 [3, 10] was 451 nM and the IC50 [2] was 451 nM.
